# Assay results reported in article PMC7906020, “Trp-Containing Antibacterial Peptides Impair Quorum Sensing and Biofilm Development in Multidrug-Resistant Pseudomonas aeruginosa and Exhibit Synergistic Effects With Antibiotics” (Frontiers in Microbiology, 2021).
# Peptide text beside a SMILES is read from it.
# What was measured:
# [1] = test system: LasB elastase of MRPA0108; assay: LasB elastase activity, elastin-Congo red method; type: cell-based, Pseudomonas aeruginosa; settings: peptide at 1/4 × MIC, 24 h, 37°C; ECR substrate, OD495/OD600; vs control; triplicate
# Procedure: (§1) The culture supernatant was obtained after centrifugation at 12,000×g for 10 min. (1) LasB elastase activity was measured using elastin-Congo red (ECR) as the substrate, as described by [Pattnaik et al. (2018)]. Briefly, 100 μl of the culture supernatant was added to 900 μl of ECR buffer (100 mM Tris-HCl, 1 mM CaCl2, pH 7.5) containing 10 mg of ECR and then incubated with shaking at 37°C for 18 h. Then, 100 μl of 0.12 M EDTA was added to stop the reaction. The insoluble ECR was removed by centrifugation, and the supernatant absorbance was measured at 495 nm. The optical density (OD) 495 nm/OD 600 nm represents the elastase activity. (2) LasA protease activity was measured as follows ([Pattnaik et al., 2018]): first, the culture supernatant was filtered to remove the bacterial cells, and then 150 μl of sterile-filtered supernatant was added to 2% azocasein (prepared in 50 mM Tris-HCl) and incubated for 4 h at 37°C. Trichloroacetic acid (TCA, 10%) was added to precipitate the undigested substrate. After centrifugation at 10,000 rpm for 10 min, 1 M NaOH was added to the supernatant, and the relative protease activity was measured at OD 440 nm. (3) The pyocyanin assay was based on the absorbance of excreted pyocyanin at 520 nm in an acidic solution ([Kong et al., 2005]). Three milliliters of culture supernatant were mixed with 2 ml of chloroform for 20 min, and then the pyocyanin from the chloroform phase was reextracted using 0.2 M HCl for 15 min to obtain a pink-colored pyocyanin solution. The OD 520 nm was measured to evaluate the change in pyocyanin content. (4) Rhamnolipid detection was carried out as previously described ([Wittgens et al., 2011]). Briefly, 500 μl of culture supernatant was mixed with 500 μl of ethyl acetate and vortexed vigorously for 15 s to extract rhamnolipid. After centrifugation at 10,000×g for 5 min at 4°C, the organic phase containing rhamnolipids was obtained and evaporated at room temperature overnight. […] The absorbance was measured at 420 nm. (5) The level of C4-HSL was quantified by GC-MS as previously described ([Guo et al., 2012]).
# [2] = test system: pyocyanin production in MRPA0108; assay: Pyocyanin production assay; type: cell-based, Pseudomonas aeruginosa; settings: peptide at 1/4 × MIC, 24 h; OD 520 nm; vs untreated control; triplicate
# Procedure: as §1, with “Trichloroacetic acid (TCA, 10%) was added to precipitate the undigested substrate.” left out, “Three milliliters of culture supernatant were mixed with 2 ml of chloroform for 20 min, and then the pyocyanin from the chloroform phase was reextracted using 0.2 M HCl for 15 min to obtain a pink-colored pyocyanin solution.” left out, “content.” for “content. (4) Rhamnolipid detection was carried out as previously described ([Wittgens et al., 2011]). Briefly, 500 μl of culture supernatant was mixed with 500 μl of ethyl acetate and vortexed vigorously for 15 s to extract rhamnolipid. After centrifugation at 10,000×g for 5 min at 4°C, the organic phase containing rhamnolipids was obtained and evaporated at room temperature overnight.”
# [3] = test system: alginate production in MRPA0108; assay: Alginate determination, H2SO4-carbazole method; type: cell-based, Pseudomonas aeruginosa; settings: OD 530 nm
# Procedure: Exopolysaccharides were determined using the phenol-H2SO4 method. Briefly, after incubation, the cultures were centrifuged at 10,000 rpm for 15 min, and the pellets were resuspended in high-salt buffer (10 mM KPO4, 5 mM NaCl, 2.5 mM MgSO4, pH 7.0), followed by recentrifugation at 10,000 rpm for 30 min. The resulting supernatant was mixed with three volumes of chilled ethanol (100%) and incubated overnight at 4°C. The precipitated exopolysaccharide was added to a mixture containing cold phenol and H2SO4, and the absorbance of the solution was measured at 490 nm. Alginate content was determined using the H2SO4-carbazole method. Briefly, after incubation, the precooled cultures were mixed with an H2SO4 solution (4:1) and vortexed in ice water, and then 0.2% carbazole dissolved in ethanol was added. The mixture was revortexed and incubated at 55°C for 30 min, and the OD 530 nm was measured.
# [4] = test system: β-lactamase activity in MRPA0108 cells; assay: β-Lactamase activity assay (nitrocefin kit) in treated cells; type: cell-based, Pseudomonas aeruginosa; settings: compared to control
# Procedure: β-lactamase activity was measured by using a β-lactamase assay kit (YIASEN Biotech Co., Ltd., Shanghai, China) according to the manufacturer’s instructions. Briefly, mid-log growth-phase bacteria were diluted to 1 × 10^8 CFU/ml and treated with I1W or L12W at concentrations ranging from 3.13 to 50 μM for 12 h at 37°C. After induction, the cultures were harvested by centrifugation at 5,000 rpm at 4°C, washed three times with PBS buffer (pH 7.2), and then resuspended in the same buffer. The cells were sonicated on ice for 15 min, and the cell lysates containing β-lactamase were collected by centrifugation at 12,000 rpm for 30 min at 4°C. Fifty microliters of the prepared β-lactamase-containing lysates was mixed with 50 μl of assay buffer containing nitrocefin and reacted at room temperature in a dark environment for 20 min. Nitrocefin hydrolysis was measured spectrophotometrically at 490 nm. Concurrently, the total protein content was determined with a Bradford assay using the same supernatant. One milliunit of β-lactamase is defined as 1 nanomole of nitrocefin hydrolyzed per minute per microgram of protein.
# [5] = test system: OprD gene expression in MRPA0108; assay: Real-time qPCR of porin gene OprD; type: cell-based, Pseudomonas aeruginosa; settings: peptide at its MIC (I1W 6.25 μM, L12W 25 μM); Supplementary Figure S2
# Procedure: Mid-logarithmic (mid-log) growth-phase MRPA0108 cells (1 × 10^8 CFU/ml) were incubated with the different concentrations of peptide at 37°C for 18 h. The bacterial cells were collected by centrifugation at 13,000×g and digested in lysis buffer containing 10 mg/ml lysozyme. Total RNA was isolated by using a TRIzol® Max^TM Kit (Invitrogen, Shanghai, China) according to the manufacturer’s instructions and subsequently reverse transcribed into cDNA using a Prime Script RT Master Mix Kit (Takara, Dalian, China). Real-time PCR was performed in an ABI QuantStudio^TM 5 sequence detection system (Applied Biosystems, United States) using 2 × SYBR Premix Ex Taq II (Solarbio Science and Technology Co., Ltd.). The PCR cycling conditions were as follows: 95°C for 30 s and 40 cycles of 5 s at 95°C, 30 s at 60°C, and 20 s at 72°C. The fold changes calculated according to the comparative cycle threshold (Ct) method were used for quantifying gene expression, normalizing to the expression of the housekeeping gene rpsL. PCR primers, including those for lasA, lasB, rhlA, rhlB, pelA, algD, psl, oprD, oprM, mexA, and mexB, were synthesized by Sangon Biotech (Shanghai, China) and are presented in Supplementary Table S2.
# [6] = cited from earlier work
# Excerpt: Supplement Table_1.docx, table 1: Table S1 Biological characteristics and antibacterial activities of the Trp-containing antimicrobial peptides (32) | column: Hemolysis (μM)
compound,measurement,setting,value
CC[C@H](C)[C@H](NC(=O)[C@H](CCCCN)NC(=O)[C@H](CO)NC(=O)[C@H](CC(C)C)NC(=O)[C@@H](NC(=O)[C@H](CCCCN)NC(=O)[C@H](CCCCN)NC(=O)[C@@H](N)Cc1c[nH]c2ccccc12)[C@@H](C)CC)C(=O)N[C@@H](CCCCN)C(=O)N[C@@H](CCCCN)C(=O)N[C@@H](CC(C)C)C(=O)N[C@@H](CC(C)C)C(=O)N[C@@H](CCCCN)C(N)=O [I1W] (H-WKKILSKIKKLLK-NH2; N-terminus and C-terminus assumed),decrease of LasB elastase activity,[1],21.0%
same,reduction of pyocyanin production,[2],73.7%
same,inhibition of alginate production,[3]; peptide at 1/4 × MIC,53%
same,inhibition of alginate production,[3]; peptide at 1 × MIC,74%
same,"effect on β-lactamase activity, peptide alone",[4]; peptide alone at concentrations greater than 12.5 μM,reduced β-lactamase activity
same,"effect on β-lactamase activity, peptide alone",[4]; peptide alone at low concentrations,no effect on β-lactamase activity
same,reduction of OprD gene expression,[5],27%
same,Hemolysis,[6],> 500 µM
